Assay results reported in patent US8883763B2 (Universite Joseph Fourier, priority 2010, dated 2014).

Columns and labels:
PP1α (PP1CA) = target: T1, PP1α (PP1CA) (Oryctolagus cuniculus, UniProt P62139); assay: Protein phosphatase test (PP1 activity, DiFMUP fluorescent substrate); format: biochemical; settings: PP1CA at 80 mU, fluorescent substrate (50 μM), molecules from 50 μM to 50 nM; read-out: PP1 Inhibition IC50
T1 construct: purchased New England Biolabs P0754
Method: FIG. 13 presents the graph showing the inhibition of the PP1Cα activity by compound 6 in vitro. PP1Cα (New England Biolabs, 30 mU/well) was incubated in the presence of compound 6 at different concentrations and a fluorescent substrate, diFMUP.
Determination of the 1050 was carried out with PP1CA at 80 mU in the presence of a fluorescent substrate
(50 μM) and different concentrations of molecules from 50 μM to 50 nM.
For the activity tests, PP1α (New England Biolabs # P0754) was used at a final concentration of 30 mU or 80 mU for the screening of all the analogues. 6,8-difluoro-4-methylumbelliferyl phosphate (DiFMUP, Invitrogen # D6567) was used as fluorescent substrate at a concentration of […]. All the tests were carried out in a final volume of 100 μl, at 37° C. in 96-microwell plates (Greiner #655096).
Compound 6, combretastatin A4 (CA-4) as well as all the analogues were diluted in 50 μl of PP1 buffer (100 mM Tris-HCl, pH 7.5, 4 mM DTT, 0.2 mM EDTA, 0.5 mM MnCl2) from 50 μM to 50 nM. Corresponding quantities of DMSO were added to control wells. PP1α (30 or 80 mU in 30 μl of PP1 buffer) was added to each well. After incubating for 15 minutes at AT, the substrate was added (in 20 μl of PP1 buffer). After incubating for 20 minutes at 37° C., the fluorescence was measured in a plate fluorometer at 355-460 nm in order to assay the phosphatase activity. The test was carried out three times in duplicate for each condition.

bovine brain tubulin = assay: In vitro tubulin polymerization test (turbidimetry at 350 nm); format: biochemical; settings: molecules at 50 μM, calculated at t=3000 s, DMSO control = 100%
Method: Tubulin was purified from bovine brain using the polymerization-depolymerization process described by (Castoldi M and Popov A V. Protein Expr Purif. 2003, 32(1): pp 83-8).
The in vitro tubulin polymerization tests (at 50 μM) were carried out in the presence of GTP 1 mM in BRB80 buffer (80 mM K-PIPES pH 6.8, 1 mM MgCl2, 1 mM EGTA) at 37° C. The tests were carried out in 96-microwell plates (half-wells) (Costar plates, Corning #3695), in triplicate with a final volume of 70 μl. Tubulin assembly was carried out in the presence of compound 6 or its analogues (all used at a concentration of 50 μM) and was monitored by turbidimetry measurement at 350 nm using a spectrophotometer (Spectramax More, Molecular Devices).
Measurement of the effect of a molecule on polymerization was calculated at t=3000 s taking the value of the control at the same time as being equal to 100%.

HeLa cells = assay: Indirect immunofluorescence: effect on HeLa cells (mitotic arrest, microtubule depolymerization); format: cell-based, human; design: key to Effect on Hela at 25 μM / Effect on Hela at 100 μM / Effect on Hela at 50 and 100 μM / Effect on Hela at 50 μM: —: −: no activity on the cells at 25 μM (if there is an effect at high concentrations, this is specified in the table).; *: weak activity (MA and/or slight depolymerization of the MTs and/or slight inhibition of proliferation),; **: average activity (MA and/or moderate depolymerization of the MTs and/or moderate inhibition of proliferation),; ***: strong activity (MA and/or pronounced depolymerization of the MTs and/or pronounced inhibition of proliferation),; ****: very strong activity (MA and/or very pronounced depolymerization of the MTs and/or strong inhibition of proliferation); settings: 24 hours; for Effect on Hela at 25 μM: mitotic index and/or depolymerization of the MTs
Method: The cells were cultured on slides in 24-well plates and incubated for 24 hours with molecule 6 at different concentrations from 1 to 10 μM.
Corresponding quantities of DMSO were added to the culture medium in the control wells.
The cells were fixed in a solution of PBS with 4% paraformaldehyde (PFA) and 0.1% glutaraldehyde (GA), for 15 minutes and centrifuged at 300 g for the last 10 minutes of the fixing. The slides were rinsed in PBS and the free aldehyde groups were reduced by two successive 5-minute incubations in PBS containing 1 mg/ml of NaBH4.
After one washing with PBS then another with PBST (PBS with 0.5% triton-X-100), the cells are incubated for 30 minutes at ambient temperature with anti α-tubulin monoclonal antibody solution (DM1A clone, Sigma # T6199) diluted to 1:200 in PBST. After 3 10-minute washings with PBST, the cells are incubated for 30 minutes at ambient temperature in a solution of goat anti-mouse polyclonal antibodies coupled with Alexa 488 (1:1000, Molecular Probes # A-11029) and phalloidin coupled with Texas red to label the actin (1:2000, Molecular Probes # T7471), in PBST also containing Hoechst 33258 (1 μg/ml) for labelling the DNA. After 3 10-minute washings in PBST, the slides are mounted on plates in Fluorsave™ mounting medium (Calbiochem #345789) and are observed and analyzed using an Axiovert 200M inverted fluorescence microscope (Zeiss®). The images are produced with a Plan-Apochromat 63× oil objective (Zeiss®) by means of a Coolsnap HQ camera (Roper Scientifics®) and with Metamorph acquisition software (Universal Imaging™ Corporation).
In order to evaluate the effect of the analogues of compound 6 on PHFs and HeLa cells, the immunofluorescence technique described above was used and adapted to a 96-well dish format. The cells were seeded in glass-bottomed 96-well dishes and incubated for 24 hours in the presence of different concentrations of molecules from 100 μM to 50 nM. And in the same way as described above, the cells were fixed and immunolabelled. Analysis of the phenotypes as well as counting the mitotic cells were carried out with the same microscope but using a ×40 objective (Olympus). The molecules were compared with each other with respect to the mitotic arrest induced on PHFs and HeLa cells at 25 and 0.3 μM.
The mitotic index and/or the depolymerization of the MTs were evaluated at 25 μM.

HMEC cells = assay: Proliferation of HMEC cells (GI50); format: cell-based; settings: Homo sapiens, 120 h, 50 μM to 1 nM for 5 days
Method: The HMECs were seeded at 10% confluence and incubated with the molecules at different concentrations (from 50 μM to 1 nM) for 5 days. The GI50 (50% Growth Inhibition) defines the concentration inducing a 50% reduction in proliferation with respect to the control.

T1 sequence (P62139 whole entry): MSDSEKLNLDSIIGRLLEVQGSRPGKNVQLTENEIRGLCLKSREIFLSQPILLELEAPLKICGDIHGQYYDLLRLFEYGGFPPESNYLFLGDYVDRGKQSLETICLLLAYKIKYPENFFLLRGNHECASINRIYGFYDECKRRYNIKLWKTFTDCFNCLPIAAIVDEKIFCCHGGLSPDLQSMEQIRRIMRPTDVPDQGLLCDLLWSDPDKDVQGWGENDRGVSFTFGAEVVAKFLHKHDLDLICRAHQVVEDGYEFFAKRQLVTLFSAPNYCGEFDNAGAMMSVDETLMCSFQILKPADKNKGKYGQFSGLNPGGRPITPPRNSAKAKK

IC50 (PP1α (PP1CA)) [µM]	Structure (SMILES)	Tubulin polymerization inhibition (bovine brain tubulin)	Effect on Hela at 25 μM (HeLa cells)	GI50 (HMEC cells) [µM]	Effect on Hela at 50 and 100 μM (HeLa cells; 50 and 100 μM)
> 50	COc1ccc(-c2[nH]c(=O)c3cc(OC)ccc3c2O)cc1 [Compound 41, 4-Hydroxy-7-methoxy-3-(4-methoxyphenyl)isoquinolin-1(2H)-one]	— ((−) signifies that the molecule induces little or no tubulin assembly inhibition in vitro: 0+ or − −5% of the DMSO control.)	—	1 to 25	
> 50	COc1ccc(-c2[nH]c(=O)c3ccccc3c2N)cc1 [Compound 8]	— ((−) signifies that the molecule induces little or no tubulin assembly inhibition in vitro: 0+ or − −5% of the DMSO control.)	—	> 50	
≥ 50	COc1ccc(-c2cc3ccc(OC)cc3c(=O)n2C)cc1 [Compound 65, 7-Methoxy-3-(4-methoxyphenyl)-2-methylisoquinoline-1(2H)-one]	+ ((+) signifies that the molecule induces tubulin assembly inhibition in vitro comprised between 6 and 25% of the DMSO control.)	*	1 to 25	
> 50	O=c1[nH]c(-c2ccc(O)cc2)cc2ccc(O)cc12 [Compound 57, 7-Hydroxy-3-(4-hydroxyphenyl)isoquinoline-1(2H)-one]	+ ((+) signifies that the molecule induces tubulin assembly inhibition in vitro comprised between 6 and 25% of the DMSO control.)	***	1 to 25	
10 to 24	COc1ccc2c([N+](=O)[O-])c(-c3ccc(O)cc3)[nH]c(=O)c2c1 [Compound 72, 3-(4-hydroxyphenyl)-7-methoxy-4-nitroisoquinolin-1(2H)-one]	++ ((++) signifies that the molecule induces tubulin assembly inhibition in vitro comprised between 26 and 50% of the DMSO control.)	****	0.1 to 1	
> 50	COc1ccc(-c2cc3ccc(OC)cc3c(=O)n2N)cc1 [Compound 61, 2-Amino-7-methoxy-3-(4-methoxyphenyl)isoquinoline-1(2H)-one]	— ((−) signifies that the molecule induces little or no tubulin assembly inhibition in vitro: 0+ or − −5% of the DMSO control.)	—	> 50	

Second part, the compound before the results:

Structure (SMILES)	IC50 (PP1α (PP1CA)) [µM]	Tubulin polymerization inhibition (bovine brain tubulin)	Effect on Hela at 25 μM (HeLa cells)	GI50 (HMEC cells) [µM]	Effect on Hela at 50 and 100 μM (HeLa cells; 50 and 100 μM)
COc1ccc2c([N+](=O)[O-])c(-c3ccc(OC(=O)OC(C)(C)C)cc3)[nH]c(=O)c2c1 [Compound 73, tert-butyl 4-(7-methoxy-4-nitro-1-oxo-1,2-dihydroisoquinolin-3-yl)phenyl carbonate]	10 to 24	— ((−) signifies that the molecule induces little or no tubulin assembly inhibition in vitro: 0+ or − −5% of the DMSO control.)	***	1 to 25	
Nc1c(-c2ccccc2)[nH]c(=O)c2ccccc12 [Compound 2]	> 50	— ((−) signifies that the molecule induces little or no tubulin assembly inhibition in vitro: 0+ or − −5% of the DMSO control.)	—	25 to 50	
COc1ccc2c(NC=O)c(-c3ccccc3)[nH]c(=O)c2c1 [Compound 9, N-(7-Methoxy-1-oxo-3-phenyl-1,2-dihydroisoquinoline-4-yl)methanamide]	> 50	— ((−) signifies that the molecule induces little or no tubulin assembly inhibition in vitro: 0+ or − −5% of the DMSO control.)	—	25 to 50	**
COc1ccc(-c2nc(N)c3cc(OC)ccc3c2[N+](=O)[O-])cc1 [Compound 71, 1-Amino-7-methoxy-3-(4-methoxyphenyl)-4-nitroisoquinoline]	> 50	+ ((+) signifies that the molecule induces tubulin assembly inhibition in vitro comprised between 6 and 25% of the DMSO control.)	—	25 to 50	
